Data reported in the kinase profiling compilation of Christmann-Franck et al. (2016).

Legend:
Assay in all cases: KINOMEscan competition binding
Conditions in all cases: compound 10.0 µM
[1] = target: BRAF (human) (UniProt P15056)
[2] = target: BTK (human) (UniProt Q06187)
[3] = target: CDK4 CCND3 (human) (UniProt P11802+P30281)
[4] = target: CDKL1 (human) (UniProt Q00532)
[5] = target: CDKL3 (human) (UniProt Q8IVW4)
[6] = target: CRK2 (P.falciparum) (UniProt P61075)
[7] = target: DDR1 (human) (UniProt Q08345)
[8] = target: DYRK2 (human) (UniProt Q92630)
[9] = test system: EGFR (human), P00533 [G719S]
[10] = test system: EGFR (human), P00533 [L861Q]
[11] = target: EIF2AK1 (human) (UniProt Q9BQI3)
[12] = target: GRK1 (human) (UniProt Q15835)
[13] = target: GRK4 (human) (UniProt P32298)
[14] = target: GRK7 (human) (UniProt Q8WTQ7)
[15] = target: HIPK2 (human) (UniProt Q9H2X6)
[16] = target: HIPK3 (human) (UniProt Q9H422)
[17] = target: ICK (human) (UniProt Q9UPZ9)
[18] = target: IRAK1 (human) (UniProt P51617)
[19] = target: KIT (human) (UniProt P10721)
[20] = target: LRRK2 (human) (UniProt Q5S007)
[21] = target: MAP2K5 (human) (UniProt Q13163)
[22] = target: MAP2K7 (human) (UniProt O14733)
[23] = target: MAP3K6 (human) (UniProt O95382)
[24] = target: MAST1 (human) (UniProt Q9Y2H9)
[25] = target: MATK (human) (UniProt P42679)
[26] = target: NIM1 (human) (UniProt Q8IY84)
[27] = target: PIK3C2G (human) (UniProt O75747)
[28] = target: PIK3CA (human) (UniProt P42336)
[29] = test system: PIK3CA (human), P42336 [C420R]
[30] = test system: PIK3CA (human), P42336 [E545K]
[31] = test system: PIK3CA (human), P42336 [I800L]
[32] = target: PIK3CG (human) (UniProt P48736)
[33] = target: PLK2 (human) (UniProt Q9NYY3)
[34] = target: PRKCI (human) (UniProt P41743)
[35] = target: SIK3 (human) (UniProt Q9Y2K2)
[36] = target: SNRK (human) (UniProt Q9NRH2)
[37] = target: STK38 (human) (UniProt Q15208)
[38] = target: TAOK2 (human) (UniProt Q9UL54)
[39] = target: TIE1 (human) (UniProt P35590)
[40] = target: VRK2 (human) (UniProt Q86Y07)

SIK3 (human), sequence (Q9Y2K2 whole entry, looked up): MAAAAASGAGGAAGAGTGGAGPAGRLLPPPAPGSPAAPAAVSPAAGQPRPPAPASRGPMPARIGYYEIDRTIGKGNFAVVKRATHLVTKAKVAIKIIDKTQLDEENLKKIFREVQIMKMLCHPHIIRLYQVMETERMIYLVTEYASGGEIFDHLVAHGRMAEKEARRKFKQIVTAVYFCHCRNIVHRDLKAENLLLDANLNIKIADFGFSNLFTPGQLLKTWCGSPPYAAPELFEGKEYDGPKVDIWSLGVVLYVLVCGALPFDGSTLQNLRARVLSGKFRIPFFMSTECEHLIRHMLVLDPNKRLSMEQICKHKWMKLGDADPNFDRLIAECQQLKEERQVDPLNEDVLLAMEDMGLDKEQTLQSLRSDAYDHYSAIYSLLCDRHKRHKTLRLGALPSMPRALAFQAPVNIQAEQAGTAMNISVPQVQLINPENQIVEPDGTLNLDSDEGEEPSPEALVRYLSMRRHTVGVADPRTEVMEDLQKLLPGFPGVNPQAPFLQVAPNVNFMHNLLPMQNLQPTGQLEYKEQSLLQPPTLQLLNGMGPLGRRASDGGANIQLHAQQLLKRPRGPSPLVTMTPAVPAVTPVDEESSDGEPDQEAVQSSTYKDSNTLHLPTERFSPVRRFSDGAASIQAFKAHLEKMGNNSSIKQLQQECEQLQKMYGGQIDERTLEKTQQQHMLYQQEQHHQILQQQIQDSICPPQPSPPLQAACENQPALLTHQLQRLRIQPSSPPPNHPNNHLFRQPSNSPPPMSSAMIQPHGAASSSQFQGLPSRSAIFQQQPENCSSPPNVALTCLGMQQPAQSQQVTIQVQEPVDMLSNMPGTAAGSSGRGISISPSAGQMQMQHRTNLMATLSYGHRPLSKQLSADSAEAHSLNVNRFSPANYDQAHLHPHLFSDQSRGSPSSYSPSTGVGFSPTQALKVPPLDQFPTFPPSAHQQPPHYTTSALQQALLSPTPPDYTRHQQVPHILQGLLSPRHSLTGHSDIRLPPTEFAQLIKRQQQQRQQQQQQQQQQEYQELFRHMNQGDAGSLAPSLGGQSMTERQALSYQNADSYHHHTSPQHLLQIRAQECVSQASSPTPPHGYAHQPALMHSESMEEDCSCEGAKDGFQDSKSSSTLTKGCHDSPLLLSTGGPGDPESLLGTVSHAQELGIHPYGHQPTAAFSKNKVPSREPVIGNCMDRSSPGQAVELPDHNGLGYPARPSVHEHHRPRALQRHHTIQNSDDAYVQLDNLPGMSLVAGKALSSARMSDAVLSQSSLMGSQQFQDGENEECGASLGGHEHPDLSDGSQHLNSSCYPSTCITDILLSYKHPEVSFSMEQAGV
TAOK2 (human), sequence (Q9UL54 whole entry, looked up): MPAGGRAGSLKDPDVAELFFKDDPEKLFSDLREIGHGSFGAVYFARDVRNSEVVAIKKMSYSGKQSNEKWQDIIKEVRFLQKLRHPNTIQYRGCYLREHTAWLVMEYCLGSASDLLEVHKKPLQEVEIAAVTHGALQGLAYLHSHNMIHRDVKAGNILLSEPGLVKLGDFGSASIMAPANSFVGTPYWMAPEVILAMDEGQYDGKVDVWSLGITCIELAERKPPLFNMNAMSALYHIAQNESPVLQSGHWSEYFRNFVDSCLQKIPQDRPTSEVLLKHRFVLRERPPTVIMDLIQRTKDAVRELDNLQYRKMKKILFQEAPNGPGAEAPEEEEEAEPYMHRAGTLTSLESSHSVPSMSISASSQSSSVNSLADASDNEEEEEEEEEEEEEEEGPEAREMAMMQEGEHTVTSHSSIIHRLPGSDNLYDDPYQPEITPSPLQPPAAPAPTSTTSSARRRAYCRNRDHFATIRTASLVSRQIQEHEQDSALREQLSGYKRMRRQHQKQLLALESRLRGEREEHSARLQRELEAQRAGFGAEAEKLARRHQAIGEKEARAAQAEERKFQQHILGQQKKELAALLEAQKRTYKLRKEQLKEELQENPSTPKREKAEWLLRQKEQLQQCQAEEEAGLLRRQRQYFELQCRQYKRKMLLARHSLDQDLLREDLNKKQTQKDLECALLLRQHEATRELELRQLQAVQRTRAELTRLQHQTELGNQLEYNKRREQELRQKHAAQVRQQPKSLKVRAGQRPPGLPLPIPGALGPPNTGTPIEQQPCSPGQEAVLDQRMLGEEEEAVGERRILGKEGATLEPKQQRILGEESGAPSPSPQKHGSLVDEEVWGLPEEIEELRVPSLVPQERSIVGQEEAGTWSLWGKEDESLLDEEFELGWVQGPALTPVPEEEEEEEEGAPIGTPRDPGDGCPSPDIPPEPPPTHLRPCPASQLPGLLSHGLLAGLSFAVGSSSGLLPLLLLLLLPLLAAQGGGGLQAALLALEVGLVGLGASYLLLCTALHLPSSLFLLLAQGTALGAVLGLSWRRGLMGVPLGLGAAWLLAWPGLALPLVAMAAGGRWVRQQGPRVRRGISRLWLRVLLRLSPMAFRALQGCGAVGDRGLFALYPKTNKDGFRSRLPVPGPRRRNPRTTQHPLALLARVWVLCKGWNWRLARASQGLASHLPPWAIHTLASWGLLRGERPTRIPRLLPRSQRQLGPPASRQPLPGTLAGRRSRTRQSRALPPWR
GRK7 (human), sequence (Q8WTQ7 whole entry, looked up): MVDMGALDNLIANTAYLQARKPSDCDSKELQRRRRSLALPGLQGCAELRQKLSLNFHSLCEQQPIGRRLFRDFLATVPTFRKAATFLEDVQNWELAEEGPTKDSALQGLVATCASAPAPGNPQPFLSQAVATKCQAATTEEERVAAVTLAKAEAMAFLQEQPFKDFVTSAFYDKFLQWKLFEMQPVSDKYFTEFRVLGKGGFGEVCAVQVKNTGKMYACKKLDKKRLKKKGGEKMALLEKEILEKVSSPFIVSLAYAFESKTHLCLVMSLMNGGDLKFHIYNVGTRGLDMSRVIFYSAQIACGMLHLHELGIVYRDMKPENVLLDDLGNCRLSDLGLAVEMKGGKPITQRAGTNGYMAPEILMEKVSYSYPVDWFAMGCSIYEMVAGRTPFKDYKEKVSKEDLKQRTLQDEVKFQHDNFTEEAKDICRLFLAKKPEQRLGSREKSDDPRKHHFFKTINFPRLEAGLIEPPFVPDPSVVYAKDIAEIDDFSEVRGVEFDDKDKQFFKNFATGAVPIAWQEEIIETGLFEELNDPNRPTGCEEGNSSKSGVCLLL
PLK2 (human), sequence (Q9NYY3 whole entry, looked up): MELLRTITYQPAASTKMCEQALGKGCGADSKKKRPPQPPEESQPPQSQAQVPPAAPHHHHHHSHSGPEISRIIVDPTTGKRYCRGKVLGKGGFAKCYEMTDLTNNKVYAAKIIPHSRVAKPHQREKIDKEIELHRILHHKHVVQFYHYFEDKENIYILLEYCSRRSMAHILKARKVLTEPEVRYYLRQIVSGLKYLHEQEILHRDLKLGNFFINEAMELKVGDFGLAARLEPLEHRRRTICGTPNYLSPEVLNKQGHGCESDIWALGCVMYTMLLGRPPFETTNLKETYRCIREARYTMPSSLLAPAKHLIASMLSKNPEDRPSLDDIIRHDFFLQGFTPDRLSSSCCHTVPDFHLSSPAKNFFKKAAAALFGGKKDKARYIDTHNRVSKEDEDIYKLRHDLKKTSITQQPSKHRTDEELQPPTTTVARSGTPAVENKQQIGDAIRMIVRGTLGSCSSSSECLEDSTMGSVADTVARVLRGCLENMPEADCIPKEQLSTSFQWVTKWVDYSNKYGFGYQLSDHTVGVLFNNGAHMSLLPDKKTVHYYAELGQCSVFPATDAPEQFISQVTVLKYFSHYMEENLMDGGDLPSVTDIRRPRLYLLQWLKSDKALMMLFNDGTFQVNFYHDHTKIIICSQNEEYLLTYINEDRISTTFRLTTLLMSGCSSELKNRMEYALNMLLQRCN
PIK3CA (human), P42336 [E545K], sequence (P42336 whole entry E545K, looked up): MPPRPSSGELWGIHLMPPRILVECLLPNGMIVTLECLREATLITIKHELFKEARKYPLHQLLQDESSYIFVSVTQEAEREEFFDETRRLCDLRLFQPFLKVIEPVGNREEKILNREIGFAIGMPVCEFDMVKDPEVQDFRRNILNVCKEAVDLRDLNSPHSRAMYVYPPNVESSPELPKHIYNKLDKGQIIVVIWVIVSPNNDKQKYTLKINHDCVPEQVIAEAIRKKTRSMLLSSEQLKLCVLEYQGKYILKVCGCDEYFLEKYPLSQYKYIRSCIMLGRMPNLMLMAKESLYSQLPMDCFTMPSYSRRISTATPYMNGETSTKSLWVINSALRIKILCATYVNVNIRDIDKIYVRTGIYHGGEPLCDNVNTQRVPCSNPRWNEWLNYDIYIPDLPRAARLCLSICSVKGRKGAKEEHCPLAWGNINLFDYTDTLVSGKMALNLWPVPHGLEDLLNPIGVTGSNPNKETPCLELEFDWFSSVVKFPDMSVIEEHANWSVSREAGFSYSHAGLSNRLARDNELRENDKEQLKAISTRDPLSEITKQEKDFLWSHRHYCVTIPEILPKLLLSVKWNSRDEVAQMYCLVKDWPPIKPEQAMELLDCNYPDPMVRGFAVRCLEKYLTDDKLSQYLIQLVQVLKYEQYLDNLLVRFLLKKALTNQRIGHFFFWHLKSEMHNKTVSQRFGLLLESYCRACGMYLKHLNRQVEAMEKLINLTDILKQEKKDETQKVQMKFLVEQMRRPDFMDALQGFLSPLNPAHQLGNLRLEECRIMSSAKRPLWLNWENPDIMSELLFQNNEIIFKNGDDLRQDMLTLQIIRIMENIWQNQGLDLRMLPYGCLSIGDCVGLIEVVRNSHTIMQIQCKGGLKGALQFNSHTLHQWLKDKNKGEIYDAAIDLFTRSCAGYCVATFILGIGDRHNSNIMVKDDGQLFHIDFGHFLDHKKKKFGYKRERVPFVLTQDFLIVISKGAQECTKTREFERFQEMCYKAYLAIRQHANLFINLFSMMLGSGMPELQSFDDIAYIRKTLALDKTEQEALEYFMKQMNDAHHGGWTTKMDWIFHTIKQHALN
PIK3CA (human), P42336 [I800L], sequence (P42336 whole entry I800L, looked up): as the sequence (P42336 whole entry E545K, looked up) above, with K545E, I800L counted along it
PIK3CA (human), sequence (P42336 whole entry, looked up): as the sequence (P42336 whole entry E545K, looked up) above, with K545E counted along it
PIK3CA (human), P42336 [C420R], sequence (P42336 whole entry C420R, looked up): as the sequence (P42336 whole entry E545K, looked up) above, with C420R, K545E counted along it

Row | SMILES | kinase still bound, per cent of control [1] [%] | kinase still bound, per cent of control [2] [%] | kinase still bound, per cent of control [3] [%] | kinase still bound, per cent of control [4] [%] | kinase still bound, per cent of control [5] [%] | kinase still bound, per cent of control [6] [%] | kinase still bound, per cent of control [7] [%] | kinase still bound, per cent of control [8] [%] | kinase still bound, per cent of control [11] [%] | kinase still bound, per cent of control [12] [%] | kinase still bound, per cent of control [13] [%] | kinase still bound, per cent of control [14] [%] | kinase still bound, per cent of control [15] [%] | kinase still bound, per cent of control [16] [%] | kinase still bound, per cent of control [17] [%] | kinase still bound, per cent of control [18] [%] | kinase still bound, per cent of control [20] [%] | kinase still bound, per cent of control [21] [%] | kinase still bound, per cent of control [22] [%] | kinase still bound, per cent of control [23] [%] | other results
1 | Cc1ccc(NC(=O)c2cccc(C(C)(C)C#N)c2)cc1Nc1ccc2ncn(C)c(=O)c2c1 | 0 | 66 | 90 | 100 | 100 | 94 | 0 | 100 | 84 | 100 | 100 | 91 | 73 | 86 | 100 | 75 | 32 | 0.7 | 93 | 100 | kinase still bound, per cent of control [9]: 37%; kinase still bound, per cent of control [10]: 34%; kinase still bound, per cent of control [19]: 0%; kinase still bound, per cent of control [24]: 100%; kinase still bound, per cent of control [25]: 100%; kinase still bound, per cent of control [26]: 100%; kinase still bound, per cent of control [27]: 88%; kinase still bound, per cent of control [28]: 100%; kinase still bound, per cent of control [29]: 100%; kinase still bound, per cent of control [30]: 100%; kinase still bound, per cent of control [31]: 100%; kinase still bound, per cent of control [32]: 99%; kinase still bound, per cent of control [33]: 99%; kinase still bound, per cent of control [34]: 100%; kinase still bound, per cent of control [35]: 100%; kinase still bound, per cent of control [36]: 100%; kinase still bound, per cent of control [37]: 100%; kinase still bound, per cent of control [38]: 72%; kinase still bound, per cent of control [39]: 11%; kinase still bound, per cent of control [40]: 100%
2 | Cc1cc([C@@H](C)Nc2ccccc2C(=O)O)c2nc(N3CCOCC3)cc(=O)n2c1 | 100 | 97 | 100 | 100 | 90 | 98 | 100 | 89 | 97 | 100 | 90 | 57 | 79 | 89 | 100 | 90 | 100 | 100 | 90 | 95 | kinase still bound, per cent of control [9]: 98%; kinase still bound, per cent of control [10]: 100%; kinase still bound, per cent of control [19]: 91%; kinase still bound, per cent of control [24]: 100%; kinase still bound, per cent of control [25]: 96%; kinase still bound, per cent of control [26]: 100%; kinase still bound, per cent of control [27]: 7%; kinase still bound, per cent of control [33]: 99%; kinase still bound, per cent of control [34]: 100%; kinase still bound, per cent of control [35]: 95%; kinase still bound, per cent of control [36]: 89%; kinase still bound, per cent of control [37]: 100%; kinase still bound, per cent of control [38]: 94%; kinase still bound, per cent of control [39]: 100%; kinase still bound, per cent of control [40]: 100%
3 | O=C1Nc2ccc(I)cc2/C1=C/c1cc(Br)c(O)c(Br)c1 | 0.9 | 99 | 99 | 84 | 88 | 90 | 85 | 54 | 57 | 92 | 21 | 73 | 7.6 | 8 | 88 | 100 | 11 | 56 | 98 | 100 | kinase still bound, per cent of control [9]: 84%; kinase still bound, per cent of control [10]: 55%; kinase still bound, per cent of control [19]: 3.4%; kinase still bound, per cent of control [24]: 100%; kinase still bound, per cent of control [25]: 100%; kinase still bound, per cent of control [26]: 100%; kinase still bound, per cent of control [27]: 44%; kinase still bound, per cent of control [28]: 85%; kinase still bound, per cent of control [29]: 100%; kinase still bound, per cent of control [30]: 100%; kinase still bound, per cent of control [31]: 61%; kinase still bound, per cent of control [32]: 71%; kinase still bound, per cent of control [33]: 71%; kinase still bound, per cent of control [34]: 100%; kinase still bound, per cent of control [35]: 100%; kinase still bound, per cent of control [36]: 99%; kinase still bound, per cent of control [37]: 64%; kinase still bound, per cent of control [38]: 71%; kinase still bound, per cent of control [39]: 86%; kinase still bound, per cent of control [40]: 82%
4 | N#Cc1c(NC(=O)c2cccc3ccccc23)sc2c1CCCC2 | 100 | 90 | 84 | 73 | 82 | 100 | 71 | 100 | 100 | 100 | 100 | 88 | 100 | 43 | 81 | 100 | 94 | 100 | 100 | 93 | kinase still bound, per cent of control [24]: 100%; kinase still bound, per cent of control [25]: 100%; kinase still bound, per cent of control [26]: 100%; kinase still bound, per cent of control [27]: 87%; kinase still bound, per cent of control [28]: 99%; kinase still bound, per cent of control [29]: 92%; kinase still bound, per cent of control [30]: 88%; kinase still bound, per cent of control [31]: 98%; kinase still bound, per cent of control [32]: 99%; kinase still bound, per cent of control [33]: 100%; kinase still bound, per cent of control [34]: 63%; kinase still bound, per cent of control [35]: 65%; kinase still bound, per cent of control [36]: 100%; kinase still bound, per cent of control [37]: 100%; kinase still bound, per cent of control [38]: 100%; kinase still bound, per cent of control [39]: 95%; kinase still bound, per cent of control [40]: 100%
